According to patent US20110092517A1, “Use of PPAR Delta Ligands for the Treatment or Prevention of Inflammation or Energy Metabolism/Production Related Diseases” (Cerenis Therapeutics S.A. & Nippon Chemiphar Co., Ltd., priority 2009, published 2011):

Assays:
human PPARα [1] = target: T1, human PPARα (Homo sapiens, UniProt Q07869); assay: GAL4-PPAR chimera receptor transactivation assay in CV-1 cells (Example 3); type: cell-based; settings: GAL4 DBD-hPPARα LBD chimera, read-out: Transactivation activity GAL 4 DBD-hPPAR LBD (EC50-Um) alpha
T1 construct: human PPARα (amino acids 167-468); expressed in transfected cells; host or cells: CV-1
T1 sequence (Q07869 167-468): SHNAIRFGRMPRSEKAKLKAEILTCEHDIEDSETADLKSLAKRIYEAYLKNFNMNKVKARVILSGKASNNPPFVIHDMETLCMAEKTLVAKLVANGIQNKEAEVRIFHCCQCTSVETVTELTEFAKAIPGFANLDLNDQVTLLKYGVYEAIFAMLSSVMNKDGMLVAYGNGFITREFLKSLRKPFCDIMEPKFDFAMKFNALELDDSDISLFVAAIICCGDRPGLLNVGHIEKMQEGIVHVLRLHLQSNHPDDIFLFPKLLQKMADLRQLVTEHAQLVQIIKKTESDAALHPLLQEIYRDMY
Method: (§1) MH100×4-tk-luc (2) was used as the reporter plasmid.
(§2) The luciferase and βGAL activity were measured according to the methods of Umesono, K. et al. (4) with slight modifications. A substrate reagent kit (Picagene, Toyo Ink) was used for the luciferase assay. Assays were performed in duplicate and triplicate for GAL4-chimeras and full-length receptors, respectively. Experiments were repeated at least four times.

human PPARγ1 = target: T2, human PPARγ1 (Homo sapiens, UniProt P37231); assay: as above; type: cell-based; settings: GAL4 DBD-hPPARγ LBD chimera, read-out: Transactivation activity GAL 4 DBD-hPPAR LBD (EC50-Um) gamma
T2 construct: PPARγ1 (amino acids 176-477); expressed in transfected cells; host or cells: CV-1
T2 sequence (P37231 176-477 isoform P37231-2): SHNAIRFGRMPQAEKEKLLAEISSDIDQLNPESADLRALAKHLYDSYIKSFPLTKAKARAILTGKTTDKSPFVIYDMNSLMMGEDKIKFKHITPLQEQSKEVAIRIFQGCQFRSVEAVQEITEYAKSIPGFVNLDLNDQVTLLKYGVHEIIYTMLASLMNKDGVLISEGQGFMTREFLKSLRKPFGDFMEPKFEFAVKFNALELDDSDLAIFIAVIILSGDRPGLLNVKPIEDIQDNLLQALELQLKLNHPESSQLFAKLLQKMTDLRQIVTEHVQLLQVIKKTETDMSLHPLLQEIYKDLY
Method: as §1, §2

human PPARδ [2] = target: T3, human PPARδ (Homo sapiens, UniProt Q03181); assay: as above; type: cell-based; settings: GAL4 DBD-hPPARδ LBD chimera, read-out: Transactivation activity GAL 4 DBD-hPPAR LBD (EC50-Um) delta
T3 construct: PPARδ (amino acids 139-441); expressed in transfected cells; host or cells: CV-1
T3 sequence (Q03181 139-441): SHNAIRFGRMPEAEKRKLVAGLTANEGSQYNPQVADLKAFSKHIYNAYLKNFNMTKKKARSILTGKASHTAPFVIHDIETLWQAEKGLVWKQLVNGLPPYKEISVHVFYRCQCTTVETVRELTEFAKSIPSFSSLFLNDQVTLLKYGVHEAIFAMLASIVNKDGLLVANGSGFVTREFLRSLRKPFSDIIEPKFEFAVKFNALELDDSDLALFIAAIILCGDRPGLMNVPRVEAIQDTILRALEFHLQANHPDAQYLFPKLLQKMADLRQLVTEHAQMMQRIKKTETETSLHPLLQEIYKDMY
Method: as §1, §2

human PPARα [3] = target: T4, human PPARα (Homo sapiens, UniProt Q07869); assay: Full-length receptor transactivation assay (PPREx3-tk-luc, hRXRα) in CV-1 cells; type: cell-based; settings: full-length hPPARα + RXRalpha, read-out: Transactivation activity FULL-hPPAR + mRXRalpha (EC50-Um) alpha
T4 construct: expressed in transfected cells; host or cells: CV-1
T4 sequence (Q07869 1-468): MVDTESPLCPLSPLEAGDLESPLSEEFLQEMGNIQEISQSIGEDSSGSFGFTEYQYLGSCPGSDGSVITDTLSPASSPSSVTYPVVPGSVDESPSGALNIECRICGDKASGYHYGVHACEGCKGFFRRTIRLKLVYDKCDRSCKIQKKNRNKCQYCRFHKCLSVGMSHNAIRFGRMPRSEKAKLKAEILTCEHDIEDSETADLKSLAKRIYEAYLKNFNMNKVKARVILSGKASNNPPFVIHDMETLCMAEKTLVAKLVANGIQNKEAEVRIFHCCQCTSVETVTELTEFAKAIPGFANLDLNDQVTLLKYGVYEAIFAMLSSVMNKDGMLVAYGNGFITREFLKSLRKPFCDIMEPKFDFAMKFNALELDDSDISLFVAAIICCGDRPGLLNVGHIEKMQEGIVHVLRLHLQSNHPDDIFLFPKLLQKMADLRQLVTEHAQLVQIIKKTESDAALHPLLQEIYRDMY
T4 sequence (P19793 1-462 partner): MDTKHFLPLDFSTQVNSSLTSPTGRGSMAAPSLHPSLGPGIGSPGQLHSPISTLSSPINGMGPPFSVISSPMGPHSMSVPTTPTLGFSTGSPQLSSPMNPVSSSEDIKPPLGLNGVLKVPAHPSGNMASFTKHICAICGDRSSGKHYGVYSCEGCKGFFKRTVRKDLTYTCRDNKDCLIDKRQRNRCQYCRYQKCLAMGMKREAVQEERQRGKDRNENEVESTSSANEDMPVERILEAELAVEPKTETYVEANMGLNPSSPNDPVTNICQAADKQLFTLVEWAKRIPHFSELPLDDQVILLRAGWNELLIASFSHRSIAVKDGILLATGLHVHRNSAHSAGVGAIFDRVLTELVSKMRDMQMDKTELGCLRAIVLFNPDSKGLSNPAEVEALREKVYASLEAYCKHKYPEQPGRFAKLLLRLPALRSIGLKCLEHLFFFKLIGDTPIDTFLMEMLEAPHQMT
Method: (§3) Receptor expression plasmids: Full-length coding sequences for human PPARα, PPARγ and PPARδ were inserted into the mammalian expression vector pcDNA3.1+ or pCMX. The full-length coding sequence for human RXRα was inserted into pcDNA3.1+.
(§4) Reporter plasmid: PPREx3-tk-luc (3) was used as the reporter plasmid. It contains three copies of rat Acyl-CoA oxidase peroxisome proliferator response element (PPRE) sequence (AGGACA-A-AGGTCA).
as §2

human PPARγ = target: T5, human PPARγ (Homo sapiens, UniProt P37231); assay: as above; type: cell-based; settings: full-length hPPARγ + RXRalpha, read-out: Transactivation activity FULL-hPPAR + mRXRalpha (EC50-Um) gamma
T5 construct: expressed in transfected cells; host or cells: CV-1
T5 sequence (P37231 1-505): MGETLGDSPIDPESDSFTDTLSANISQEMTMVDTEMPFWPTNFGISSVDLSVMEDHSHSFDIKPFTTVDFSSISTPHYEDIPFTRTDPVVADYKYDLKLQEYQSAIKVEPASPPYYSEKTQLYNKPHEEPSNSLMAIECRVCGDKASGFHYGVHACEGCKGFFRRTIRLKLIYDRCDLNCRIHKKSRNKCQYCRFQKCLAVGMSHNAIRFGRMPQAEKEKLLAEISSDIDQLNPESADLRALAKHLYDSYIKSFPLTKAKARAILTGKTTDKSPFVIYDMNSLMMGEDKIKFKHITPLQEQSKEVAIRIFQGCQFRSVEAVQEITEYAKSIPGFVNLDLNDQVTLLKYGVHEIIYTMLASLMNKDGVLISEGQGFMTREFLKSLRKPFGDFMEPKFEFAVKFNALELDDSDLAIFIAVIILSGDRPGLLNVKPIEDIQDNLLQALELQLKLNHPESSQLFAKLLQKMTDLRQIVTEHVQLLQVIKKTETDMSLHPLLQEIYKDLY
T5 sequence (P19793 1-462 partner): T4 sequence (P19793 1-462 partner)
Method: as §3, §4, §2

human PPARδ [4] = target: T6, human PPARδ (Homo sapiens, UniProt Q03181); assay: as above; type: cell-based; settings: full-length hPPARδ + RXRalpha, read-out: Transactivation activity FULL-hPPAR + mRXRalpha (EC50-Um) delta
T6 construct: expressed in transfected cells; host or cells: CV-1
T6 sequence (Q03181 1-441): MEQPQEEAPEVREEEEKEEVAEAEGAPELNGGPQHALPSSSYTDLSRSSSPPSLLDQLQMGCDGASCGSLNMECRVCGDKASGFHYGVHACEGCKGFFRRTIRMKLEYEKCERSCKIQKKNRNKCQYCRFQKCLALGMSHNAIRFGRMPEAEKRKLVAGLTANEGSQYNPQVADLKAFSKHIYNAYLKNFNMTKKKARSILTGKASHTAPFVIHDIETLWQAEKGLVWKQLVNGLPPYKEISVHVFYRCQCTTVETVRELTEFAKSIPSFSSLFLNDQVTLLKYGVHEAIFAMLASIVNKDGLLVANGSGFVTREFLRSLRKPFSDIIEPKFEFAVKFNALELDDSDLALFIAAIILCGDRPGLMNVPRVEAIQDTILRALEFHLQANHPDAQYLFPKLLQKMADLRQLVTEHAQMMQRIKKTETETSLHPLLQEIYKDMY
T6 sequence (P19793 1-462 partner): T4 sequence (P19793 1-462 partner)
Method: as §3, §4, §2

[5] = toxicological dosages for 10 days, cited from earlier work; for Peroxisome proliferation in muscle and liver: WT mice

SMILES	EC50 (human PPARα [1]) [µM]	EC50 (human PPARγ1) [µM]	EC50 (human PPARδ [2]) [µM]	EC50 (human PPARα [3]) [µM]	EC50 (human PPARγ) [µM]	EC50 (human PPARδ [4]) [µM]	Peroxisome proliferation in muscle and liver [5]	Incidence and severity of skeletal myopathy ([5]; WT vs PPAR-α KO mice)
Cc1cc2c(CCc3nc(-c4ccc(Cl)cc4Cl)oc3C(C)C)noc2cc1OCC(=O)O	> 10	> 10	0.025	7.8	> 10	0.007	–	–
Cc1cc(C(=O)/C=C/c2sc(-c3ccc(C(F)(F)F)cc3)nc2C(C)C)ccc1OCC(=O)O	> 10	> 10	0.045	> 10	> 10	0.019	–	–
Cc1cc([C@H](O)CCc2sc(-c3ccc(C(F)(F)F)cc3)nc2C(C)C)ccc1OCC(=O)O	> 10	> 10	> 0.7	–	–	–	–	–
Cc1cc(SCc2sc(-c3ccc(C(F)(F)F)c(F)c3)nc2C)ccc1OCC(=O)O [GW0742]	–	–	–	–	–	–	significant peroxisome proliferation	greater in WT mice
Cc1cccc(Nc2cc(Cl)nc(SCC(=O)O)n2)c1C [WY-14,643]	–	–	–	–	–	–	significant peroxisome proliferation	–
Cc1cc(C(=O)CCc2sc(-c3ccc(C(F)(F)F)cc3)nc2C(C)C)ccc1OCC(=O)O [drawing 63]	> 10	> 8	0.018	3.2	5.8	0.0022	–	–

Now from value to molecule, other results behind:

EC50 (human PPARα [1]) [µM]	EC50 (human PPARγ1) [µM]	EC50 (human PPARδ [2]) [µM]	EC50 (human PPARα [3]) [µM]	EC50 (human PPARγ) [µM]	EC50 (human PPARδ [4]) [µM]	SMILES	Peroxisome proliferation in muscle and liver [5]	Incidence and severity of skeletal myopathy ([5]; WT vs PPAR-α KO mice)
> 10	> 10	0.032	3.8	9.8	0.058	Cc1cc(C(=O)CCc2nc(-c3ccc(Cl)cc3O)oc2C(C)C)ccc1OCC(=O)O	–	–
3.3	6.7	0.018	–	–	–	Cc1cc(C(=O)CCc2sc(-c3ccc(C(F)(F)F)cc3)nc2C(C)C)ccc1SCC(=O)O	–	–
> 10	> 10	> 1	> 8	> 8	> 0.3	Cc1cc(C(O)CCc2sc(-c3ccc(C(F)(F)F)cc3)nc2C(C)C)ccc1OCC(=O)O (stereo not drawn)	–	–
